# According to patent US20250188088A1, “COMPOUND AND USE THEREOF” (ONQUALITY PHARMACEUTICALS CHINA LTD., priority 2022, published 2025):
# Read-outs that look alike come from different tables or passages of the source.
# Experiments:
# [1] = Log D measurement (n-octanol/PBS shake, LC-MS/MS); format: physicochemical; conditions: pH 7.4, read-out: LogD7.4 (Oct/buff)
# Protocol: Two replicates of test compounds (DMSO stock solution 10 mM, 2 μL/well) and QCs (DMSO 10 mM, 2 μL/well) were transferred from the storage tube to a 96-well cluster tube. Add buffer-saturated n-octanol ([…]) and n-octanol-saturated PBS (149 μL/well) to each well; vortex mix the cluster tube for 1 minute, mix by shaking on a plate shaker at 880 rpm for one hour, and then centrifuge at 4000 rpm for 10 minutes. Remove the cover pad, accurately measure a certain amount of n-octanol layer samples (4 μL/well) into a 96-well plate containing n-octanol internal standard diluent (796 μL/well); accurately measure a certain amount of buffer salt layer samples (30 μL/well) into a 96-well plate containing buffer internal standard diluent (570 μL/well); the dilution factor of the sample can be adjusted according to different properties of the sample. Samples were analyzed using a triple quadrupole mass spectrometer. The processed sample solution was analyzed by the fast isocratic elution and small column retention method, the concentration correction was carried out by dilution factor and internal standard, and the ratio of the corrected peak area was used to calculate the final result (Log D/Log P value).
# [2] = Thermodynamic solubility assay (PBS pH 6.5; isopropyl myristate); format: physicochemical; conditions: thermodynamic from solid
# Protocol: Thermodynamic Solubility Assay
# Weigh not less than 2 mg of the sample powder into a Whatman Mini-UniPrep vial. If it is required to test the thermodynamic solubility of samples in multiple buffers, a separate vial is needed for each test; add 450 μL of buffer to each Whatman Mini-UniPrep vial, respectively; after that, install the piston cap of Whatman Mini-UniPrep and press it above the liquid level, so that the filter is in contact with the buffer during shaking; shake the solubility sample by vortexing for 1 minute.
# Inject 3 UV standard solutions from low to high concentrations into the HPLC, then inject the diluent and supernatant of the test compound, with two replicates of test sample; and integrate the UV peaks. Simulate a standard curve and calculate the thermodynamic solubility of the sample.
# [3] = system: rash caused by small molecule EGFR inhibitors; assay: Prevention of rash caused by small molecule EGFR inhibitors, topical ointment, rat model; format: in vivo, SD rats
# Text: An Experiment to Verify the Prevention of Rash Caused by Small Molecule EGFR Inhibitors with Topical Administration of Compounds of the Present Application on a Rat Animal Model A rat animal model was established. After daily gavage of a small molecule EGFR inhibitor to female SD rats for […], the rats developed extensive rashes on their backs several days later (picture shown in FIG. 1). […] Similar to humans, rats developed skin rashes on their faces and bodies after oral administration of small molecule EGFR inhibitors. Both of them had the same etiology and very similar symptoms. Therefore, rats are a proper animal model for mimicking EGFR inhibitor-induced rash. After the SD rats were fed and adapted for one week (about 200 g), the rats were divided into 10 rats per group. The hair on the back of rats was gently removed with an electric razor one day before the experiment, and then an intragastric administration test was carried out. EGFR inhibitors were dissolved in a sterile aqueous solution, and diluted with PBS buffer; the amount of each gavage was not more than 2 mL, and the dosage was shown in Table 1. The experiment comprised the administration group and the control group. After intragastric administration, apply the ointment (type and concentration are shown in Table 1) of the compound used in the present application to the backs (about 3 cm*3 cm) of rats in the administration group; apply blank matrix ointment (about 0.5 g) to the backs (about 3 cm*3 cm) of rats in the control group; fix the rats with a fixed cylinder for about 4 hours after drug application, release the rats after 4 hours, wipe off the residual drug at the application site with clean water, and put them back into the cage. The frequency of intragastric administration of EGFR inhibitors is shown in Table 1, but the compounds of the present application and blank matrix ointment are applied only once a day. The intragastric administration and application test were repeated daily until an obvious rash appeared in the control group. […] Table 1 lists the animal experiment combination of various small molecule EGFR inhibitors and the compound ointment of the present application, as well as the corresponding experiment results (wherein, the value in the control rate column=the number of rats whose rash is milder in the administration group than that in the control group/the total number of rats in the administration group×100%).
# [4] = system: rash caused by monoclonal EGFR inhibitors; assay: Prevention of rash caused by monoclonal EGFR inhibitors, topical ointment, rat model; format: in vivo, SD rats
# Summary of the method: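 SD rats (~200 g), backs shaved, 10 per group, given EGFR monoclonal antibody i.v. (tail vein) twice weekly, with compound ointment or blank matrix ointment applied daily to a ~3×3 cm dorsal area, held 4 h then wiped off, until control rash appeared. Control rate = % of treated rats with milder rash than controls.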
# [5] = Plasma stability, mini pig plasma; format: in vitro ADME, Mini Pigs; conditions: 37° C.
# [6] = Plasma stability, human plasma; format: in vitro ADME, Humans; conditions: 37° C.
# [7] = system: skin contact delayed-type hypersensitivity; assay: Skin contact delayed-type hypersensitivity (DNFB) response test, ear swelling, topical ointment; format: in vivo; conditions: topical to ears, DNFB DTH, Balb/c mice, compared to blank ointment
# Summary of the method: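 Balb/c mice sensitized with DNFB on the back on Days 0–1, then challenged on Day 5 with 0.2% DNFB on both ears. Ear thickness measured by micrometer 24–72 h after challenge. Compound ointment applied topically over Days −1–7 or Days 4–7; effect is the reduction in ear swelling versus blank ointment, with ≥20% deemed effective.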
# [8] = aqueous buffer, PBS buffer pH 6.5, about 25° C., read-out: Thermodynamic Solubility pH = 6.5
# [9] = oil or lipid, isopropyl myristate as vehicle, about 25° C., read-out: Thermodynamic Solubility in Isopropyl Myristate
compound,measurement,setting,value
CCCC(CC)C(=O)OCCN(C)C(=O)n1ccc2c(N(C)[C@H]3CN(C(=O)CC#N)CC[C@H]3C)ncnc21 (stereo partly drawn) [Compound A12],logD,[1],2.72
same,solubility thermodynamic at 24 h,[2]; [8],16 µg/mL
same,solubility thermodynamic at 24 h,[2]; [9],339 µg/mL
same,Control Rate,"[3]; Afatinib 40 mg/kg once a day, ointment 1.0 wt% once a day, 14 days",60%
same,Control Rate,"[3]; Afatinib 40 mg/kg once a day, ointment 3.0 wt% once a day, 14 days",75%
same,Control Rate,"[3]; Afatinib 40 mg/kg once a day, ointment 5.0 wt% once a day, 14 days",90%
same,Control Rate,"[3]; EAI045 80 mg/kg once a day, ointment 1.0 wt% once a day, 11 days",60%
same,Control Rate,"[3]; EAI045 80 mg/kg once a day, ointment 10.0 wt% once a day, 11 days",70%
same,Control Rate,"[3]; Erlotinib 70 mg/kg once a day, ointment 0.3 wt% once a day, 14 days",20%
same,Control Rate,"[3]; Erlotinib 70 mg/kg once a day, ointment 3.0 wt% once a day, 14 days",50%
same,Control Rate,"[3]; Osimertinib 60 mg/kg twice a day, ointment 0.3 wt% once a day, 10 days",50%
same,Control Rate,"[3]; Osimertinib 60 mg/kg twice a day, ointment 5.0 wt% once a day, 10 days",80%
same,Control Rate,"[4]; Cetuximab 100 mg/kg twice a week via tail vein, ointment 0.3 wt% once a day, 10 days",20%
same,Control Rate,"[4]; Cetuximab 100 mg/kg twice a week via tail vein, ointment 3.0 wt% once a day, 10 days",70%
same,Control Rate,"[4]; Cetuximab 100 mg/kg twice a week via tail vein, ointment 10.0 wt% once a day, 10 days",85%
same,Control Rate,"[4]; Panitumumab 10 mg/kg twice a week via tail vein, ointment 1.0 wt% once a day, 14 days",50%
same,Control Rate,"[4]; Panitumumab 10 mg/kg twice a week via tail vein, ointment 5.0 wt% once a day, 14 days",60%
same,Control Rate,"[4]; Panitumumab 10 mg/kg twice a week via tail vein, ointment 10.0 wt% once a day, 14 days",60%
COCCOCC(=O)OCCN(C)C(=O)n1ccc2c(N(C)[C@H]3CN(C(=O)CC#N)CC[C@H]3C)ncnc21 [Compound A18],logD,[1],0.23
same,solubility thermodynamic at 24 h,[2]; [8],> 4840 µg/mL
same,solubility thermodynamic at 24 h,[2]; [9],54.7 µg/mL
same,half-life at 2 µM,[5],9.1 min
same,% Retained,[5]; 0 min,100.0%
same,% Retained,[5]; 10 min,57.3%
same,% Retained,[5]; 30 min,13.5%
same,% Retained,[5]; 60 min,1.3%
same,% Retained,[5]; 120 min,0.0%
same,half-life at 2 µM,[6],1.9 min
same,% Retained,[6]; 0 min,100.0%
same,% Retained,[6]; 10 min,2.6%
same,% Retained,[6]; 30 min,0.0%
same,% Retained,[6]; 60 min,0.0%
same,% Retained,[6]; 120 min,0.0%
same,Control Rate,"[3]; BPI-7711 60 mg/kg once a day, ointment 3.0 wt% once a day, 14 days",70%
same,Control Rate,"[3]; EAI045 80 mg/kg once a day, ointment 0.3 wt% once a day, 11 days",30%
same,Control Rate,"[3]; EAI045 80 mg/kg once a day, ointment 3.0 wt% once a day, 11 days",70%
same,Control Rate,"[3]; EAI045 80 mg/kg once a day, ointment 5.0 wt% once a day, 11 days",90%
same,Control Rate,"[3]; Zorifertinib 60 mg/kg once a day, ointment 3.0 wt% once a day, 12 days",60%
same,Reduction Rate of Ear Swelling,[7]; ointment 0.1 wt%,23%
same,Reduction Rate of Ear Swelling,[7]; ointment 1.0 wt%,29%
same,Reduction Rate of Ear Swelling,[7]; ointment 5.0 wt%,37%
same,Reduction Rate of Ear Swelling,[7]; ointment 10.0 wt%,45%
C[C@@H]1CCN(C(=O)CC#N)C[C@@H]1N(C)c1ncnc2c1ccn2C(=O)N(C)CCOC(=O)CC1CCC1 [Compound A5],logD,[1],2.05
same,solubility thermodynamic at 24 h,[2]; [8],147 µg/mL
same,solubility thermodynamic at 24 h,[2]; [9],1200 µg/mL
